Data on 19 compounds can be found in US11299487B2, “Compounds and compositions as modulators of TLR signaling” (Neuropore Therapies, Inc., priority 2019, dated 2022).

Holding throughout (format): cell-based
Assay [1] addresses T1, human TLR2 (Homo sapiens, UniProt O60603).
T1 construct: host or cells: HEK-Blue hTLR2 (HEK-293)
Nature of the assay: HEK-Blue hTLR2 antagonism assay (SEAP reporter) with agonist Pam3CSK4 (TLR1/2 agonist). To be noted: HEK-Blue hTLR2 cells, ~3×EC50 Pam3CSK4, 18 h, SEAP OD 655 nm, 8-point dilutions.

Another assay has as its target T2, human TLR9 (Homo sapiens, UniProt Q9NR96).
T2 construct: host or cells: HEK-Blue hTLR9 (HEK-293)
T2 sequence (Q9NR96 26-1032): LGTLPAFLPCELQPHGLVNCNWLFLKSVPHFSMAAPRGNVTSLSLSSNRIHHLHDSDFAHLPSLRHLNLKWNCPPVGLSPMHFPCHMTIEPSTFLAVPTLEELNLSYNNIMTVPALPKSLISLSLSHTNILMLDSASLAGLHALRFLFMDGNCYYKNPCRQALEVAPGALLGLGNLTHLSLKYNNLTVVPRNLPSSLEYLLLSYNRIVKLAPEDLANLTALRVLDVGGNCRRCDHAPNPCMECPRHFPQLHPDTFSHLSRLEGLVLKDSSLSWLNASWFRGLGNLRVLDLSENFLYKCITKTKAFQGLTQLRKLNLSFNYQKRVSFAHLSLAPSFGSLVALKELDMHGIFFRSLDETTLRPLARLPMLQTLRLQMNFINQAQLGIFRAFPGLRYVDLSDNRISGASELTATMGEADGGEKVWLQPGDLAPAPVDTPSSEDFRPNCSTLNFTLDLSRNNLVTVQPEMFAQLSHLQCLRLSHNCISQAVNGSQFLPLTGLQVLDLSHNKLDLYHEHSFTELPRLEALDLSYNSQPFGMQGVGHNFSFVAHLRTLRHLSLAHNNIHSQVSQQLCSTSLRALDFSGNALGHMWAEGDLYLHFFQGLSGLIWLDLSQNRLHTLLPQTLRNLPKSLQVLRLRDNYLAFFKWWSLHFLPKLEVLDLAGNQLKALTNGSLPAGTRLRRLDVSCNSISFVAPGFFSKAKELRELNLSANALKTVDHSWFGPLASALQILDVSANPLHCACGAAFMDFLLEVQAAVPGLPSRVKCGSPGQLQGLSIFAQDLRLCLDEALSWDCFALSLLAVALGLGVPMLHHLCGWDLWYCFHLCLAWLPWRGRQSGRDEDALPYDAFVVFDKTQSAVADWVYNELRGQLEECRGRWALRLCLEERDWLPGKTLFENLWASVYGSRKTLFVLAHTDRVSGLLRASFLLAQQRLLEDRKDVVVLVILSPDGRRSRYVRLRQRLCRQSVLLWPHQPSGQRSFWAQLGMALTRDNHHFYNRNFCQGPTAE
Briefly: HEK-Blue hTLR9 assay (SEAP reporter) with agonist ODN 2006. To be noted: HEK-Blue hTLR9 cells, ~3×EC50 ODN 2006, 18 h, exact values 8-point dilutions, approximate (~ or <) 4-point dilutions, read-out: ~IC50 (μM) with ODN2006. The protocol:
Synthetic ODNs (ODN 2006 (ODN7909), class B CpG oligonucleotide, TLR9 agonist) was obtained from InvivoGen and was dissolved in endotoxin-free water to a concentration 500 μM, vortexed until complete solubilization, and stored in aliquots at −20° C. Prior to addition to cells, an aliquot of the dissolved ligand was vortexed shortly and then was diluted in medium to 50 μM. The EC50 of the agonist for each assay run was determined by using 3-fold dilutions from the starting concentration 10 μM.
Test compounds were solubilized fresh to 10-20 mM stocks in DMSO and sonicated for 5-10 minutes in a water bath sonicator. Serial dilutions were prepared in DMSO, and then diluted in medium. The final concentration of DMSO used in the assay was 1%.
HEK-Blue hTLR9 reporter cells (InvivoGen) are HEK-293 cells stably expressing both the human TLR9 gene and a secreted embryonic alkaline phosphatase (SEAP) reporter construct downstream of NFκB promotor sites. HEK-Blue hTLR9 cells were cultured according to manufacturer's protocol using Dulbecco's Modified Eagle Medium (DMEM; Gibco) containing 1× GlutaMax (Gibco), 10% heat-inactivated Fetal Bovine Serum (Gibco), Pen-Strep (50 U/mL penicillin, 50 μg/mL streptomycin, Gibco), 100 μg/mL Normocin (InvivoGen), and the selective antibiotics, 10 μg/mL Blasticidin (InvivoGen), and 100 μg/mL Zeocin (InvivoGen). Quanti-Blue reagent (InvivoGen) for detection and quantification of secreted alkaline phosphatase was dissolved in 100 mL of endotoxin-free water, warmed to 37° C. for 30 minutes and then filtered using a 0.2 μm membrane.
On day 1, 50 μL of each test compound dilution in duplicates or a vehicle control was added to each well of a 96-well plate followed by addition of 150 μL of HEK-Blue hTLR9 cell suspension (1×10^5 cells/well) and incubated at 37° C./5% CO2 for 2 h. Next, 50 μL of an approximate 3×EC50 concentration of TLR9 agonist, ODN 2006, was added to the wells containing test compounds or the vehicle control. The plates were then incubated at 37° C./5% CO2 for 18 h. For each assay run, vehicle-treated HEK-Blue hTLR9 cells were treated with serial dilutions of agonist to determine EC50 values for the respective run.
On day 2, secreted alkaline phosphatase (SEAP) activity was detected in cell culture supernatants. In brief, 30 μL was collected from each well and transferred to a 96-well plate. Next, 200 μL of Quanti-Blue detection reagent was added to each well. Plates were incubated at 37° C. for 60 min. and SEAP activity was assessed by spectrophotometer OD reading at 655 nm. Table A and Table B show the activities of the compounds tested in HEK-Blue hTLR9 cells against ODN 2006. The activities of the compounds against ODN 2006 are presented as IC50 values which were defined as concentrations of the compounds where percent inhibition of the signal induced by agonist is equal to 50. Exact IC50 values were calculated based on 8-point dilutions for each compound. Approximate IC50 values (˜ or <) were calculated based on 4-point dilutions for each compound.

Assay [2] concerns the target T1, human TLR2. Nature of the assay: HEK-Blue hTLR2 antagonism assay (SEAP reporter) with agonist Pam2CSK4 (TLR2/6 agonist). The settings on record: HEK-Blue hTLR2 cells, ~3×EC50 Pam2CSK4, 18 h, SEAP OD 655 nm, 8-point dilutions.

Like-named read-outs stand apart in the source and are kept apart here.

T1 sequence (O60603 21-784): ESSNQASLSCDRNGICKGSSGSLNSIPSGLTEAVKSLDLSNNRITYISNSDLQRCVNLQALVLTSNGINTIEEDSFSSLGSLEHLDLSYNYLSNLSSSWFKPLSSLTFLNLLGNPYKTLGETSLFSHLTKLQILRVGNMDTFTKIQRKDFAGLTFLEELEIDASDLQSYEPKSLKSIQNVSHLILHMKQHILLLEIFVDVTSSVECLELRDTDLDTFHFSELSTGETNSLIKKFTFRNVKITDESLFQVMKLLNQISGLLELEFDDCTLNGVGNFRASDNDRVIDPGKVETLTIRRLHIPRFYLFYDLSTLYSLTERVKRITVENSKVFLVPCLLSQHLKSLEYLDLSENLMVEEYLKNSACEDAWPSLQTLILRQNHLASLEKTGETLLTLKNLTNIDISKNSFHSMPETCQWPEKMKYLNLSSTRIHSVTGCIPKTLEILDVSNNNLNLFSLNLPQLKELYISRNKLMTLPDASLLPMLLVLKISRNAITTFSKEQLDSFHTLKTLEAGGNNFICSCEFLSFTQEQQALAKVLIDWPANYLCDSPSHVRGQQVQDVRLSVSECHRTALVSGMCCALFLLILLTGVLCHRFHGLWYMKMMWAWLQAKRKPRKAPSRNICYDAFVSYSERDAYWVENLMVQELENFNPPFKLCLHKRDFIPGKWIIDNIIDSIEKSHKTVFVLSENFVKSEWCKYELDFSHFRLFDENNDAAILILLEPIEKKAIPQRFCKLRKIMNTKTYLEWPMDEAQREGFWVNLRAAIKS

Regarding `O=Cc1cc(-c2csc(-c3ccc(N4CCCC4)cc3)c2)cc(F)c1O` [Compound A52, 3-fluoro-2-hydroxy-5-(5-(4-(pyrrolidin-1-yl)phenyl)thiophen-3-yl)benzaldehyde], the results for the IC50 on human TLR2 [1] (Table A), on human TLR9 (Table A) and at human TLR2 [2] (Table A) were 0.2 µM, less than 1.2 µM and 0.7 µM, respectively.
`O=Cc1cc(-c2cnc(-c3ccc(N4CCCC4)cc3)s2)cc(F)c1O` [Compound A55, 3-fluoro-2-hydroxy-5-(2-(4-(pyrrolidin-1-yl)phenyl)thiazol-5-yl)benzaldehyde]: the IC50 (as a rule, the point on the concentration scale where inhibition reaches its midpoint) turned out to be 0.4 µM at human TLR2 [1] (Table A), 0.2 µM at human TLR9 (Table A) and 0.6 µM at human TLR2 [2] (Table A).
For `O=Cc1cc(-c2csc(-c3ccc(N4CCCC4)cc3)n2)cc(F)c1O` [Compound A57, 3-fluoro-2-hydroxy-5-(2-(4-(pyrrolidin-1-yl)phenyl)thiazol-4-yl)benzaldehyde], in that order: 0.3 µM, 0.3 µM and 1 µM.
On to `O=Cc1cc(-c2nsc(-c3ccc(N4CCCC4)cc3)n2)cc(F)c1O` [Compound A61, 3-fluoro-2-hydroxy-5-(5-(4-(pyrrolidin-1-yl)phenyl)-1,2,4-thiadiazol-3-yl)benzaldehyde], for which the IC50 is 1 µM at human TLR2 [1] (Table A), less than 1.2 µM at human TLR9 (Table A) and 3.2 µM at human TLR2 [2] (Table A).
In the case of `O=Cc1cc(-c2nc(-c3ccc(N4CCCC4)cc3)ns2)cc(F)c1O` [Compound A62, 3-fluoro-2-hydroxy-5-(3-(4-(pyrrolidin-1-yl)phenyl)-1,2,4-thiadiazol-5-yl)benzaldehyde], the figures for the IC50 at human TLR2 [1] (Table A), on human TLR9 (Table A) and at human TLR2 [2] (Table A) were 0.4 µM, 0.2 µM and 0.7 µM, respectively.
For `O=Cc1cc(-c2cnc(-c3ccccc3)o2)cc(F)c1O` [Compound A88, 3-fluoro-2-hydroxy-5-(2-phenyloxazol-5-yl)benzaldehyde], in that order: 1.3 µM, approximately 3 µM and 2.1 µM.
As to `O=Cc1cc(-c2cnc(-c3ccccc3)s2)cc(F)c1O` [Compound A91, 3-fluoro-2-hydroxy-5-(2-phenylthiazol-5-yl)benzaldehyde], the IC50 on human TLR2 [1] (Table A) is 2.1 µM; on human TLR9 (Table A) it was less than 1.2 µM; at human TLR2 [2] (Table A), 3.8 µM.
As to `O=Cc1cc(-c2nc(-c3ccccc3)cs2)cc(F)c1O` [Compound A93, 3-fluoro-2-hydroxy-5-(4-phenylthiazol-2-yl)benzaldehyde], the IC50 was 2.1 µM on human TLR2 [1] (Table A), less than 1.2 µM on human TLR9 (Table A) and 4.8 µM on human TLR2 [2] (Table A).
For the compound `O=Cc1cc(-c2nnc(-c3ccccc3)s2)cc(F)c1O` [Compound A94, 3-fluoro-2-hydroxy-5-(5-phenyl-1,3,4-thiadiazol-2-yl)benzaldehyde], the IC50 was 9.2 µM at human TLR2 [1] (Table A), less than 1.2 µM on human TLR9 (Table A) and 14.8 µM at human TLR2 [2] (Table A).
With `O=Cc1cc(-c2nc(-c3ccccc3)ns2)cc(F)c1O` [Compound A95, 3-fluoro-2-hydroxy-5-(3-phenyl-1,2,4-thiadiazol-5-yl)benzaldehyde], the figures for the IC50 at human TLR2 [1] (Table A), at human TLR9 (Table A) and on human TLR2 [2] (Table A) were 2.3 µM, approximately 1.4 µM and 3 µM, respectively.
Take `O=Cc1cc(-c2nc(-c3ccccc3)n[nH]2)cc(F)c1O` [Compound A96, 3-fluoro-2-hydroxy-5-(3-phenyl-1H-1,2,4-triazol-5-yl)benzaldehyde]: the IC50 is 8.8 µM on human TLR2 [1] (Table A), approximately 6.3 µM at human TLR9 (Table A) and 12.1 µM at human TLR2 [2] (Table A).
Consider `O=Cc1cc(C#Cc2ccc(N3CCCC3)cc2)cc(F)c1O` [Compound B1, 3-fluoro-2-hydroxy-5-((4-(pyrrolidin-1-yl)phenyl)ethynyl)benzaldehyde], for which the IC50 at human TLR2 [1] (Table B) is 0.7 µM; at human TLR9 (Table B), less than 1.2 µM; on human TLR2 [2] (Table B), 1.1 µM.
On to `O=Cc1cc(C#Cc2ccc(N3CCOCC3)cc2)cc(F)c1O` [Compound B3, 3-fluoro-2-hydroxy-5-((4-morpholinophenyl)ethynyl)benzaldehyde], for which the figures for the IC50 at human TLR2 [1] (Table B), at human TLR9 (Table B) and at human TLR2 [2] (Table B) were 2.2 µM, less than 1.2 µM and 3.7 µM, respectively.
Consider `O=Cc1c(O)cc(C#Cc2ccc(N3CCCC3)cc2)cc1F` [Compound B4, 2-fluoro-6-hydroxy-4-((4-(pyrrolidin-1-yl)phenyl)ethynyl)benzaldehyde], for which the IC50 is 2.7 µM on human TLR2 [1] (Table B), approximately 1.5 µM at human TLR9 (Table B) and 6.3 µM on human TLR2 [2] (Table B).
`COc1cc(C#Cc2ccc(N3CCCC3)cc2)cc(O)c1C=O` [Compound B7, 2-hydroxy-6-methoxy-4-((4-(pyrrolidin-1-yl)phenyl)ethynyl)benzaldehyde]: the 50% inhibitory concentration (IC50) is 20.8 µM at human TLR2 [1] (Table B), more than 33 µM on human TLR9 (Table B) and 35.7 µM at human TLR2 [2] (Table B).
For `O=Cc1cc(C(=O)Nc2ccccc2)cc(F)c1O` [Compound B11, 3-fluoro-5-formyl-4-hydroxy-N-phenylbenzamide], in that order: 10.6 µM, less than 1.2 µM and 12 µM.
For the compound `O=Cc1cc(C(=O)Nc2ccc(N3CCCC3)cc2)cc(F)c1O` [Compound B12, 3-fluoro-5-formyl-4-hydroxy-N-(4-(pyrrolidin-1-yl)phenyl)benzamide], the IC50 on human TLR2 [1] (Table B) turned out to be 2 µM; on human TLR9 (Table B) it was 0.7 µM; at human TLR2 [2] (Table B), 2.7 µM.
For `O=Cc1cc(C(=O)Nc2ccc(C(F)(F)F)c(Cl)c2)cc(F)c1O` [Compound B14, N-(3-Chloro-4-(trifluoromethyl)phenyl)-3-fluoro-5-formyl-4-hydroxybenzamide], in that order: 1.5 µM, more than 33 µM and 1.3 µM.
For the compound `O=Cc1cc(S(=O)(=O)Nc2ccc(N3CCCC3)cc2)cc(F)c1O` [Compound B17, 3-fluoro-5-formyl-4-hydroxy-N-(4-(pyrrolidin-1-yl)phenyl)benzenesulfonamide], the IC50 on human TLR2 [1] (Table B) is 6.6 µM; at human TLR9 (Table B), approximately 2.9 µM; at human TLR2 [2] (Table B), 12.7 µM.
